# Source: patent US20240325544A1, “CATIONIC LIPID FOR COVALENT MODIFICATION OF PEPTIDES” (PharmalN Corporation, priority 2023, published 2024)
# Bridge positions count the residues as written; N and C are the ends. Square brackets hold non-standard residues; d marks the D form. Peptide text beside a SMILES is read from it. * marks the point of attachment. Palmitoyl = CCCCCCCCCCCCCCCC(=O)*; Dap = NC[C@H](N)C(=O)O; AEEA = NCCOCCOCC(=O)O
# What was measured:
# MC38 colon cancer cells = experiment: Subcutaneous mouse model of colon cancer using MC38 cells (FIG. 12); format: in vivo, mice; details: monotherapy, 0.3 mg/kg SC, 5 days on, 2 days off, 3 cycles; Day 22
# Method: FIGS. 12A-12B. […] Error bars represent standard error of the mean. FIG. 12A) A diagram of the dose schedule for administration of immune checkpoint inhibitor (anti-tigit Ab) and SEQ ID NO: 31. FIG. 12 B) Tumor growth kinetics of 6-week-old male C57BL/6J mice (n=8-9 per group) that were subcutaneously inoculated with MC38 colon cancer cells (1,000,000 cells/mouse) in right flank. Starting from Day 4 post-inoculation, anti-tigit Ab was administered intraperitoneally at 5 mg/kg twice a week for 2 cycles; SEQ ID NO: 31 was administered subcutaneously at a bolus dose of 0.3 mg/kg (0.1 μmol/kg) once daily for 5 days (5 days on, 2 days off) for 3 cycles; or a combination of anti-tigit Ab (5 mg/kg IP twice a week; 2 cycles) and SEQ ID NO: 31 (0.3 mg/kg SC once a day for 5 days on and 2 days off; 3 cycles). The control group, which received only buffer, was dosed in the same manner as SEQ ID NO: 31 to establish the baseline tumor growth kinetics. […]
# Animal care and treatment: Male C57BL/6J mice (6 weeks-old) were purchased from Kyudo (Saga, Japan) and maintained under a 12-hour light/12-hour dark cycle with free access to water and standard mouse diet (MF diet; Oriental Yeast Co., Ltd, Tokyo Japan). […] Tumor sizes were measured using calipers on Days 4, 7, 14, and Day 22 post-inoculation. […]
# LM8 osteosarcoma cells = experiment: Orthotopic mouse model of lung metastasis using osteosarcoma LM8 cells with amputation (FIG. 11); format: in vivo, mice; details: 0.3 mg/kg SC with amputation on Day 7; Day 34
# Method: FIGS. 11A-11C. […] Error bars indicate standard error of the mean. […] Also illustrated in this diagram are the corresponding treatment schedules for SEQ ID NO: 31 and amputation. From tumor implantation, the SEQ ID NO: 31 treated group was dosed SC (0.3 mg/kg/0.1 μmol/kg in buffer) on Days 4-8, 11-15, 18-22, and 25-26. On Day 7 post-inoculation, all mice underwent amputation to remove the primary tumor. In place of treatment, the amputated control group also received buffer on the same days that SEQ ID NO: 31 was administered. Mice were sacrificed on Day 34, and lung tissues were harvested. FIGS. 11B and 11C) Lung tissues were soaked in 4% paraformaldehyde, paraffin-embedded, and sections were stained with hematoxylin and eosin (H&E). Lung images were observed using high-resolution microscopy (Keyence, Tokyo, Japan, #BZ-X700), and lung metastasis was evaluated by the direct count of present metastatic lung nodules. […]
# Animal care and treatment: Male […] mice (7 weeks-old) were purchased from Kyudo (Saga, Japan) and maintained under a 12-hour light/12-hour dark cycle with free access to water and standard mouse diet (MF diet; Oriental Yeast Co., Ltd., Tokyo, Japan). […] Lung images were observed using the high-resolution microscopy (Keyence, Tokyo, Japan, #BZ-X700), and lung metastasis was evaluated by the direct count of present metastatic nodules (FIG. 11C). […]
smiles,measurement,setting,value
CCCCCCCCCCCCCCCC(=O)NCCOCCOCC(=O)NCCOCCOCC(=O)NCCOCCOCC(=O)N[C@@H](CN)C(=O)N[C@@H](CN)C(=O)NCC(=O)N[C@@H](CC(C)C)C(=O)N[C@@H](CO)C(=O)N[C@@H](CCCCN)C(=O)NCC(=O)N[C@H]1CSSC[C@@H](C(=O)O)NC(=O)CNC(=O)[C@H](CC(C)C)NC(=O)CNC(=O)[C@H](CO)NC(=O)[C@H](CCC(N)=O)NC(=O)[C@H](CO)NC(=O)CNC(=O)[C@H]([C@@H](C)CC)NC(=O)[C@H](CCCNC(=N)N)NC(=O)[C@H](CC(=O)O)NC(=O)[C@H](CC(C)C)NC(=O)[C@H](CCCCN)NC(=O)[C@H](CC(C)C)NC(=O)CNC(=O)[C@H](Cc2ccccc2)NC1=O [SEQ ID NO: 31] ({Palmitoyl-AEEA-AEEA-AEEA}-[Dap][Dap]GLSKGCFGLKLDRIGSQSGLGC-OH; disulfide 8-24; C-terminus assumed),Tumor volume and cancer burden compared to the Control group,MC38 colon cancer cells,significant decrease in tumor volume and cancer burden
same,Metastatic nodules present in the lung vs amputation alone,LM8 osteosarcoma cells,significant reduction
